Laboratory results from US9322066B2, “Predictors for cancer treatment” (priority 2011, dated 2016).

Tested on: relapsed or refractory, rituximab-naive or -sensitive follicular B-cell NHL
Assay: Treatment free interval, Vc-R vs rituximab study, by biomarker
Assay type: in vivo, human
Parameters: Treatment Free Interval, Median: unit not given here
Settings: for Treatment Free Interval, Evt/N / Treatment Free Interval, Median: IRC Review
Description: Non-Hodgkin lymphoma (NHL) encompasses several unique malignant lymphoid disease entities that vary in clinical behavior, morphologic appearance, immunologic, and molecular phenotype. […] A randomized, open-label, active-controlled, multicenter, multinational, prospective study to compare the efficacy and safety of the combination of bortezomib and rituximab (Vc-R) to single-agent rituximab in subjects who have relapsed or refractory, rituximab-naive or -sensitive follicular B-cell NHL was performed.
Subjects were centrally randomized to Treatment Groups A (Vc-R) or B (rituximab) in a 1:1 ratio taking into account the following stratification factors: • Follicular Lymphoma International Prognostic Index (FLIPI) score (low [0 or 1 factor], intermediate [2 factors], high [≧3 factors]); • Prior rituximab therapy (yes, no); • Time since last dose of anti-lymphoma therapy (≦1 year, >1 year); • Region (United States/Canada, European Union, Rest of World).
The following clinical endpoints were included in the analysis within each treatment group and an overall comparison was made with the biomarker-related endpoints: Progression-free survival, defined as the interval between the date of randomization and the date of progressive disease (PD) or death, whichever is first reported in the ITT population; overall survival; overall response rate (complete response [CR]+CR unconfirmed [CRu]+partial response [PR]); overall CR rate (CR+CRu); duration of response; time to next anti-lymphoma therapy; and treatment free interval.

[1] = 20S % NUCLEAR STAINING 0-20, Female
[2] = 20S % NUCLEAR STAINING 60-70, Male
[3] = 20S % NUCLEAR STAINING 60-70, Prior Rituximab Therapy
[4] = 20S INTENSITY CYTOPLASMIC SIGNAL: ≧3+, European Union
[5] = CD68 OVERALL POSITIVE: 0-25, 2 Prior Lines of Therapy
[6] = CD68 OVERALL POSITIVE: 0-25, >1 year since last anti-lymphoma treatment
[7] = CD68 OVERALL POSITIVE: 0-25, Ann Arbor Stage III
[8] = CD68 OVERALL POSITIVE: 0-25, Ann Arbor Stage IV
[9] = CD68 OVERALL POSITIVE: 0-25, European Union
[10] = CD68 OVERALL POSITIVE: 0-25, Female
[11] = CD68 OVERALL POSITIVE: 0-25, Intermediate FLIPI Score
[12] = CD68 OVERALL POSITIVE: 0-25, Low FLIPI Score
[13] = CD68 OVERALL POSITIVE: 0-25, No High Tumor Burden
[14] = CD68 OVERALL POSITIVE: 0-25, No Prior Rituximab Therapy
[15] = CD68 OVERALL POSITIVE: 0-25, No Subgroup
[16] = CD68 OVERALL POSITIVE: 0-25, Prior Rituximab Therapy
[17] = CD68 OVERALL POSITIVE: 0-25, White
[18] = CD68 OVERALL POSITIVE: 0-25, ≦65 years old
[19] = CD68 OVERALL POSITIVE: >75, Male
[20] = CD68 POSITIVE FOLLICULAR: 0-25, >1 year since last anti-lymphoma treatment
[21] = CD68 POSITIVE FOLLICULAR: 0-25, Ann Arbor Stage III
[22] = CD68 POSITIVE FOLLICULAR: 0-25, Asian
[23] = CD68 POSITIVE FOLLICULAR: 0-25, Female
[24] = CD68 POSITIVE FOLLICULAR: 0-25, No High Tumor Burden
[25] = CD68 POSITIVE FOLLICULAR: 0-25, No Prior Rituximab Therapy
[26] = CD68 POSITIVE FOLLICULAR: 0-25, No Subgroup
[27] = CD68 POSITIVE FOLLICULAR: 0-25, White
[28] = CD68 POSITIVE FOLLICULAR: 0-25, ≦65 years old
[29] = CD68 POSITIVE PERIFOLLICULAR: 0-25, 2 Prior Lines of Therapy
[30] = CD68 POSITIVE PERIFOLLICULAR: 0-25, >1 year since last anti-lymphoma treatment
[31] = CD68 POSITIVE PERIFOLLICULAR: 0-25, Ann Arbor Stage IV
[32] = CD68 POSITIVE PERIFOLLICULAR: 0-25, Female
[33] = CD68 POSITIVE PERIFOLLICULAR: 0-25, Intermediate FLIPI Score
[34] = CD68 POSITIVE PERIFOLLICULAR: 0-25, No High Tumor Burden
[35] = CD68 POSITIVE PERIFOLLICULAR: 0-25, No Prior Rituximab Therapy
[36] = CD68 POSITIVE PERIFOLLICULAR: 0-25, No Subgroup
[37] = CD68 POSITIVE PERIFOLLICULAR: 0-25, White
[38] = CD68 POSITIVE PERIFOLLICULAR: 0-25, ≦65 years old
[39] = CD68 POSITIVE PERIFOLLICULAR: 26-50, Other
[40] = CD68 POSITIVE PERIFOLLICULAR: >75, 1 Prior Line of Therapy
[41] = CD68 POSITIVE PERIFOLLICULAR: >75, European Union
[42] = CD68 POSITIVE PERIFOLLICULAR: >75, ≦65 years old
[43] = P27 % NUCLEI POSITIVE: 0-20, 1 Prior Line of Therapy
[44] = P27 % NUCLEI POSITIVE: 0-20, Ann Arbor Stage III
[45] = P27 % NUCLEI POSITIVE: 0-20, ≦65 years old
[46] = P27 % NUCLEI POSITIVE: 30-50, High Tumor Burden
[47] = P27 SIGNAL INTENSITY: ≦1+, High Tumor Burden
[48] = P27 SIGNAL INTENSITY: ≧2+, 5 Prior Lines of Therapy

rituximab
Treatment Free Interval, Evt/N [1]: 35/61 | Treatment Free Interval, Median [1]: 427 | Treatment Free Interval, Evt/N [2]: 14/16 | Treatment Free Interval, Median [2]: 110 | Treatment Free Interval, Evt/N [3]: 17/21 | Treatment Free Interval, Median [3]: 190 | Treatment Free Interval, Evt/N [4]: 34/52 | Treatment Free Interval, Median [4]: 393 | duration of treatment free interval (Biomarker positive (PSMB1 P11A heterozygote and CD68 Low)): 10.1 mo | Treatment Free Interval, Evt/N [5]: 6/8 | Treatment Free Interval, Median [5]: 80 | Treatment Free Interval, Evt/N [6]: 17/26 | Treatment Free Interval, Median [6]: 269 | Treatment Free Interval, Evt/N [7]: 12/16 | Treatment Free Interval, Median [7]: 135 | Treatment Free Interval, Evt/N [8]: 15/22 | Treatment Free Interval, Median [8]: 293 | Treatment Free Interval, Evt/N [9]: 14/22 | Treatment Free Interval, Median [9]: 234 | Treatment Free Interval, Evt/N [10]: 16/26 | Treatment Free Interval, Median [10]: 293 | Treatment Free Interval, Evt/N [11]: 7/11 | Treatment Free Interval, Median [11]: 343 | Treatment Free Interval, Evt/N [12]: 8/10 | Treatment Free Interval, Median [12]: 281 | Treatment Free Interval, Evt/N [13]: 8/14 | Treatment Free Interval, Median [13]: 411 | Treatment Free Interval, Evt/N [14]: 12/19 | Treatment Free Interval, Median [14]: 393 | Treatment Free Interval, Evt/N [15]: 30/44 | Treatment Free Interval, Median [15]: 269 | Treatment Free Interval, Evt/N [16]: 18/25 | Treatment Free Interval, Median [16]: 115 | Treatment Free Interval, Evt/N [17]: 24/35 | Treatment Free Interval, Median [17]: 269 | Treatment Free Interval, Evt/N [18]: 24/34 | Treatment Free Interval, Median [18]: 234 | Treatment Free Interval, Evt/N (CD68 OVERALL POSITIVE: 51-75, No High Tumor Burden): 10/25 | Treatment Free Interval, Evt/N [19]: 8/9 | Treatment Free Interval, Median [19]: 272 | Treatment Free Interval, Evt/N [20]: 22/34 | Treatment Free Interval, Median [20]: 409 | Treatment Free Interval, Evt/N [21]: 19/24 | Treatment Free Interval, Median [21]: 190 | Treatment Free Interval, Evt/N [22]: 5/6 | Treatment Free Interval, Median [22]: 148 | Treatment Free Interval, Evt/N [23]: 23/37 | Treatment Free Interval, Median [23]: 307 | Treatment Free Interval, Evt/N [24]: 14/22 | Treatment Free Interval, Median [24]: 432 | Treatment Free Interval, Evt/N [25]: 23/36 | Treatment Free Interval, Median [25]: 344 | Treatment Free Interval, Evt/N [26]: 40/60 | Treatment Free Interval, Median [26]: 307 | Treatment Free Interval, Evt/N [27]: 32/48 | Treatment Free Interval, Median [27]: 307 | Treatment Free Interval, Evt/N [28]: 33/46 | Treatment Free Interval, Median [28]: 190 | Treatment Free Interval, Evt/N [29]: 6/8 | Treatment Free Interval, Median [29]: 64 | Treatment Free Interval, Evt/N [30]: 15/24 | Treatment Free Interval, Median [30]: 393 | Treatment Free Interval, Evt/N [31]: 11/15 | Treatment Free Interval, Median [31]: 234 | Treatment Free Interval, Evt/N [32]: 19/28 | Treatment Free Interval, Median [32]: 234 | Treatment Free Interval, Evt/N [33]: 7/13 | Treatment Free Interval, Median [33]: 361 | Treatment Free Interval, Evt/N [34]: 8/13 | Treatment Free Interval, Median [34]: 361 | Treatment Free Interval, Evt/N [35]: 12/18 | Treatment Free Interval, Median [35]: 393 | Treatment Free Interval, Evt/N [36]: 26/39 | Treatment Free Interval, Median [36]: 234 | Treatment Free Interval, Evt/N [37]: 19/27 | Treatment Free Interval, Median [37]: 361 | Treatment Free Interval, Evt/N [38]: 20/31 | Treatment Free Interval, Median [38]: 143 | Treatment Free Interval, Evt/N [39]: 4/4 | Treatment Free Interval, Median [39]: 217 | Treatment Free Interval, Evt/N [40]: 15/18 | Treatment Free Interval, Median [40]: 297 | Treatment Free Interval, Evt/N [41]: 13/17 | Treatment Free Interval, Median [41]: 533 | Treatment Free Interval, Evt/N [42]: 19/23 | Treatment Free Interval, Median [42]: 297 | Treatment Free Interval, Evt/N [43]: 19/26 | Treatment Free Interval, Median [43]: 293 | Treatment Free Interval, Evt/N [44]: 14/16 | Treatment Free Interval, Median [44]: 275 | Treatment Free Interval, Evt/N [45]: 26/34 | Treatment Free Interval, Median [45]: 187 | Treatment Free Interval, Evt/N [46]: 17/22 | Treatment Free Interval, Median [46]: 280 | Treatment Free Interval, Evt/N (P27 % NUCLEI POSITIVE: 60-70, 3 Prior Lines of Therapy): 1/6 | Treatment Free Interval, Evt/N [47]: 16/18 | Treatment Free Interval, Median [47]: 122 | Treatment Free Interval, Evt/N [48]: 5/6 | Treatment Free Interval, Median [48]: 88 | Treatment Free Interval, Evt/N (P27 SIGNAL INTENSITY: ≧2+, Prior Rituximab Therapy): 60/88
